Molecular target: T1, Human BCL-XL protein (N-terminal HiBiT tagged BCL-XL in HT1080 cells) (Homo sapiens, UniProt Q07817)
T1 construct: expressed in transfected cells; host or cells: HT-1080 (ATCC CCL-121), stably transduced with lentivirus pLV-UBC-N-HiBiT-BCL-XL-PGK-puro and selected with puromycin
Assay: HiBiT based degradation assay
Format: cell-based
Conditions: HT1080 cells expressing HiBiT-BCL-XL, 24 h; for Ymin (24 h): BCL-XL degradation normalized with DMSO control; for DC50: BCL-XL degradation, read-out: EC50 (24 h)
How it was run: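 HT1080 cells stably transduced by lentivirus with N-terminally HiBiT-tagged human BCL-XL and kept under 1 μg/mL puromycin selection were seeded at three thousand cells per well in 40 μL RPMI 1640 into 384-well plates pre-spotted with compounds across a concentration range. Luminescence was read on a PHERAstar FSX, normalized to DMSO, and fitted with a four-parameter logistic model.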

T1 sequence (Q07817 whole entry): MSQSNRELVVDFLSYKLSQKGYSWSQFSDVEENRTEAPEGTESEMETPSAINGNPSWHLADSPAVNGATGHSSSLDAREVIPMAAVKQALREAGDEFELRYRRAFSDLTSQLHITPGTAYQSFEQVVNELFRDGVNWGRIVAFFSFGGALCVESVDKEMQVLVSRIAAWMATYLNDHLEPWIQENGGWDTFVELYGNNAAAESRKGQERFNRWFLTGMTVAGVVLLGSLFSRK

Ymin (24 h)	DC50 [nM]	Compound
A (Ymin < 50%)	< 100	Cc1c(O[C@H]2CC[C@H](CCCN3CCN(c4ccc5c(C6CCC(=O)NC6=O)nn(C)c5c4)[C@H](C)C3)CC2)cccc1-c1ccc(N2CCc3cccc(C(=O)Nc4nc5ccccc5s4)c3C2)nc1C(=O)O (stereo partly drawn) [Compound 278a, 6-(8-(benzo[d]thiazol-2-ylcarbamoyl)-3,4-dihydroisoquinolin-2(1H)-yl)-3-(3-(((1S,4r)-4-(3-((3R)-4-(3-(2,6-dioxopiperidin-3-yl)-1-methyl-1H-indazol-6-yl)-3-methylpiperazin-1-yl)propyl)cyclohexyl)oxy)-2-methylphenyl)picolinic acid]
A (Ymin < 50%)	< 100	Cc1c(O[C@H]2CC[C@H](CCCN3CCN(c4ccc5c(C6CCC(=O)NC6=O)nn(C)c5c4)[C@@H](C)C3)CC2)cccc1-c1ccc(N2CCc3cccc(C(=O)Nc4nc5ccccc5s4)c3C2)nc1C(=O)O (stereo partly drawn) [Compound 278b, 6-(8-(benzo[d]thiazol-2-ylcarbamoyl)-3,4-dihydroisoquinolin-2(1H)-yl)-3-(3-(((1R,4r)-4-(3-((3S)-4-(3-(2,6-dioxopiperidin-3-yl)-1-methyl-1H-indazol-6-yl)-3-methylpiperazin-1-yl)propyl)cyclohexyl)oxy)-2-methylphenyl)picolinic acid]
A (Ymin < 50%)	< 100	Cc1c(OCCCC2CCN(CC3CCN(c4cccc5c(C6CCC(=O)NC6=O)nn(C)c45)CC3)CC2)cccc1-c1ccc(N2CCc3cccc(C(=O)Nc4nc5ccccc5s4)c3C2)nc1C(=O)O (centres unmarked) [Compound 279, 6-[8-(1,3-benzothiazol-2-ylcarbamoyl)-3,4-dihydro-1H-isoquinolin-2-yl]-3-[3-[3-[1-[[1-[3-(2,6-dioxo-3-piperidyl)-1-methyl-indazol-7-yl]-4-piperidyl]methyl]-4-piperidyl]propoxy]-2-methyl-phenyl]pyridine-2-carboxylic acid]
B (50% ≤ Ymin < 70%)	< 100	Cc1c(OCCCc2ccc(CC(=O)Nc3ccc4c(C5CCC(=O)NC5=O)nn(C)c4c3)nc2)cccc1-c1ccc(N2CCc3cccc(C(=O)Nc4nc5ccccc5s4)c3C2)nc1C(=O)O (centres unmarked) [Compound 280, 6-[8-(1,3-benzothiazol-2-ylcarbamoyl)-3,4-dihydro-1H-isoquinolin-2-yl]-3-[3-[3-[6-[2-[[3-(2,6-dioxo-3-piperidyl)-1-methyl-indazol-6-yl]amino]-2-oxo-ethyl]-3-pyridyl]propoxy]-2-methyl-phenyl]pyridine-2-carboxylic acid]
A (Ymin < 50%)	< 100	Cc1c(OCCCC2CC3(C2)CN(CC(=O)Nc2ccc4c(C5CCC(=O)NC5=O)nn(C)c4c2)C3)cccc1-c1ccc(N2CCc3cccc(C(=O)Nc4nc5ccccc5s4)c3C2)nc1C(=O)O (centres unmarked) [Compound 286, 6-[8-(1,3-benzothiazol-2-ylcarbamoyl)-3,4-dihydro-1H-isoquinolin-2-yl]-3-[3-[3-[2-[2-[[3-(2,6-dioxo-3-piperidyl)-1-methyl-indazol-6-yl]amino]-2-oxo-ethyl]-2-azaspiro[3.3]heptan-6-yl]propoxy]-2-methyl-phenyl]pyridine-2-carboxylic acid]
A (Ymin < 50%)	< 100	Cc1c(OCCC2CCN(CCCC3CCN(c4ccc5c(C6CCC(=O)NC6=O)nn(C)c5c4)CC3)CC2)cccc1-c1ccc(N2CCc3cccc(C(=O)Nc4nc5ccccc5s4)c3C2)nc1C(=O)O (centres unmarked) [Compound 287, 6-[8-(1,3-benzothiazol-2-ylcarbamoyl)-3,4-dihydro-1H-isoquinolin-2-yl]-3-[3-[2-[1-[3-[1-[3-(2,6-dioxo-3-piperidyl)-1-methyl-indazol-6-yl]-4-piperidyl]propyl]-4-piperidyl]ethoxy]-2-methyl-phenyl]pyridine-2-carboxylic acid]
A (Ymin < 50%)	< 100	Cc1c(OCCC2CCN(CCCC3CCN(c4cccc5c(C6CCC(=O)NC6=O)nn(C)c45)CC3)CC2)cccc1-c1ccc(N2CCc3cccc(C(=O)Nc4nc5ccccc5s4)c3C2)nc1C(=O)O (centres unmarked) [Compound 288, 6-[8-(1,3-benzothiazol-2-ylcarbamoyl)-3,4-dihydro-1H-isoquinolin-2-yl]-3-[3-[2-[1-[3-[1-[3-(2,6-dioxo-3-piperidyl)-1-methyl-indazol-7-yl]-4-piperidyl]propyl]-4-piperidyl]ethoxy]-2-methyl-phenyl]pyridine-2-carboxylic acid]
A (Ymin < 50%)	< 100	Cc1c(CCCOC2CCN(CC(=O)Nc3ccc4c(C5CCC(=O)NC5=O)nn(C)c4c3)CC2)cccc1-c1ccc(N2CCc3cccc(C(=O)Nc4nc5ccccc5s4)c3C2)nc1C(=O)O (centres unmarked) [Compound 290, 6-[8-(1,3-benzothiazol-2-ylcarbamoyl)-3,4-dihydro-1H-isoquinolin-2-yl]-3-[3-[3-[[1-[2-[[3-(2,6-dioxo-3-piperidyl)-1-methyl-indazol-6-yl]amino]-2-oxo-ethyl]-4-piperidyl]oxy]propyl]-2-methyl-phenyl]pyridine-2-carboxylic acid]
A (Ymin < 50%)	< 100	Cc1cc(CCCOC2CCN(CC(=O)Nc3ccc4c(C5CCC(=O)NC5=O)nn(C)c4c3)CC2)ccc1-c1ccc(N2CCc3cccc(C(=O)Nc4nc5ccccc5s4)c3C2)nc1C(=O)O (centres unmarked) [Compound 291, 6-[8-(1,3-benzothiazol-2-ylcarbamoyl)-3,4-dihydro-1H-isoquinolin-2-yl]-3-[4-[3-[[1-[2-[[3-(2,6-dioxo-3-piperidyl)-1-methyl-indazol-6-yl]amino]-2-oxo-ethyl]-4-piperidyl]oxy]propyl]-2-methyl-phenyl]pyridine-2-carboxylic acid]
A (Ymin < 50%)	< 100	Cc1c(CCCCC2CCN(CC(=O)Nc3ccc4c(C5CCC(=O)NC5=O)nn(C)c4c3)CC2)cccc1-c1ccc(N2CCc3cccc(C(=O)Nc4nc5ccccc5s4)c3C2)nc1C(=O)O (centres unmarked) [Compound 292, 6-[8-(1,3-benzothiazol-2-ylcarbamoyl)-3,4-dihydro-1H-isoquinolin-2-yl]-3-[3-[4-[1-[2-[[3-(2,6-dioxo-3-piperidyl)-1-methyl-indazol-6-yl]amino]-2-oxo-ethyl]-4-piperidyl]butyl]-2-methyl-phenyl]pyridine-2-carboxylic acid]
A (Ymin < 50%)	< 100	Cc1c(O[C@H]2CC[C@H](CCCCN3CCN(c4ccc5c(C6CCC(=O)NC6=O)nn(C)c5c4F)CC3)CC2)cccc1-c1ccc(N2CCc3cccc(C(=O)Nc4nc5ccccc5s4)c3C2)nc1C(=O)O (some centres unmarked) [Compound 293a, 6-(8-(benzo[d]thiazol-2-ylcarbamoyl)-3,4-dihydroisoquinolin-2(1H)-yl)-3-(3-(((1s,4r)-4-(4-(4-(3-(2,6-dioxopiperidin-3-yl)-7-fluoro-1-methyl-1H-indazol-6-yl)piperazin-1-yl)butyl)cyclohexyl)oxy)-2-methylphenyl)picolinic acid]
A (Ymin < 50%)	< 100	Cc1cc(CCCCC2CCN(CC(=O)Nc3ccc4c(C5CCC(=O)NC5=O)nn(C)c4c3)CC2)ccc1-c1ccc(N2CCc3cccc(C(=O)Nc4nc5ccccc5s4)c3C2)nc1C(=O)O (centres unmarked) [Compound 294]
B (50% ≤ Ymin < 70%)	100 to 1000	Cc1c(OCCCC2CCN(CC(=O)Nc3cc4c(cc3F)c(C3CCC(=O)NC3=O)nn4C)CC2)cccc1-c1ccc(N2CCc3cccc(C(=O)Nc4nc5ccccc5s4)c3C2)nc1C(=O)O (centres unmarked) [Compound 295, 6-[8-(1,3-benzothiazol-2-ylcarbamoyl)-3,4-dihydro-1H-isoquinolin-2-yl]-3-[3-[3-[1-[2-[[3-(2,6-dioxo-3-piperidyl)-5-fluoro-1-methyl-indazol-6-yl]amino]-2-oxo-ethyl]-4-piperidyl]propoxy]-2-methyl-phenyl]pyridine-2-carboxylic acid]
A (Ymin < 50%)	< 100	Cc1c(O[C@H]2CC[C@H](CCCCN3CCN(c4cc5c(cc4F)c(C4CCC(=O)NC4=O)nn5C)CC3)CC2)cccc1-c1ccc(N2CCc3cccc(C(=O)Nc4nc5ccccc5s4)c3C2)nc1C(=O)O (some centres unmarked) [Compound 296a, 6-(8-(benzo[d]thiazol-2-ylcarbamoyl)-3,4-dihydroisoquinolin-2(1H)-yl)-3-(3-(((1s,4r)-4-(4-(4-(3-(2,6-dioxopiperidin-3-yl)-5-fluoro-1-methyl-1H-indazol-6-yl)piperazin-1-yl)butyl)cyclohexyl)oxy)-2-methylphenyl)picolinic acid]
A (Ymin < 50%)	< 100	Cc1c(O[C@H]2CC[C@H](CCCCN3CCN(c4ccc5c(C6CCC(=O)NC6=O)nn(C)c5c4)C[C@H]3C)CC2)cccc1-c1ccc(N2CCc3cccc(C(=O)Nc4nc5ccccc5s4)c3C2)nc1C(=O)O (stereo partly drawn) [Compound 297a, 6-(8-(benzo[d]thiazol-2-ylcarbamoyl)-3,4-dihydroisoquinolin-2(1H)-yl)-3-(3-(((1s,4r)-4-(4-((2R)-4-(3-(2,6-dioxopiperidin-3-yl)-1-methyl-1H-indazol-6-yl)-2-methylpiperazin-1-yl)butyl)cyclohexyl)oxy)-2-methylphenyl)picolinic acid]

Compound	Ymin (24 h)	DC50 [nM]
Cc1c(OCCCCC2CCN(CC3CCN(c4cccc5c(C6CCC(=O)NC6=O)nn(C)c45)CC3)CC2)cccc1-c1ccc(N2CCc3cccc(C(=O)Nc4nc5ccccc5s4)c3C2)nc1C(=O)O (centres unmarked) [Compound 285, 6-[8-(1,3-benzothiazol-2-ylcarbamoyl)-3,4-dihydro-1H-isoquinolin-2-yl]-3-[3-[4-[1-[[1-[3-(2,6-dioxo-3-piperidyl)-1-methyl-indazol-7-yl]-4-piperidyl]methyl]-4-piperidyl]butoxy]-2-methyl-phenyl]pyridine-2-carboxylic acid]	A (Ymin < 50%)	< 100
